Laboratory results reported in ChEMBL document CHEMBL5365400, “Design and synthesis of aminopyridine containing biaryls reducing c-MYC protein levels in cells” (Bioorg Med Chem Lett, 2023).
Values after ≈ are worked out from the molar mass of the structure shown.

Experiments:
[1] = Aqueous solubility of compound; format: physicochemical; details: buffer
[2] = Lipophilicity, log D of the compound at pH 7.4 by chromatographic method; format: physicochemical; details: buffer
[3] = AUC (0 to infinity) in po dosed rat; format: ADME, organism-based; set-up: route po; details: in vivo
[4] = Cmax in po dosed rat; format: ADME, organism-based; set-up: route po; details: in vivo
[5] = Half life in po dosed rat; format: ADME, organism-based; details: in vivo
[6] = Volume of distribution at steady state in po dosed rat; format: ADME, organism-based; details: in vivo
[7] = Clearance in po dosed rat; format: ADME, organism-based; details: in vivo
[8] = Artificial membrane permeability of compound; format: physicochemical; details: PAMPA; read-out: permeability
[9] = Oral bioavailability in rat; format: ADME, organism-based; details: in vivo

solubility [1] | chromatographic logD [2] | other results | Structure (SMILES)
> 65 µg/mL | 4.9 | – | CCN(CC)c1ccc(-c2nn3ccncc3c2Cc2coc(C)n2)cn1
≥ 112 µg/mL | 1.5 | – | CCN(CC)c1ccc(-c2nc3ncccn3c2Cc2coc(C)n2)cn1
65 µg/mL (≈ 180 µM) | 5.1 | AUC(0-inf) [3]: 126 ng·h/mL; Cmax [4]: 180 ng/mL; half-life [5]: 13.2 min; Vdss [6]: 2.1 L/kg; clearance [7]: 160 mL/min/kg; Papp [8]: 68 ×10⁻⁶ cm/s; bioavailability [9]: < 5% | CCN(CC)c1ccc(-c2nc3ccccc3n2Cc2coc(C)n2)cn1
90 µg/mL (≈ 237 µM) | 6.2 | – | CCOCCc1c(-c2ccc(N(CC)CC)nc2)c(=O)n(C)c2ccccc12
80 µg/mL (≈ 206 µM) | 4.7 | AUC(0-inf) [3]: 108 ng·h/mL; Cmax [4]: 220 ng/mL; half-life [5]: 14.4 min; Vdss [6]: 3.1 L/kg; clearance [7]: 180 mL/min/kg; Papp [8]: 57 ×10⁻⁶ cm/s | Cc1nc(Cc2c(-c3ccc(N4[C@@H](C)CC[C@@H]4C)nc3)nc3cccnn23)co1
38 µg/mL (≈ 109 µM) | 7.2 | – | CCOCCc1cc2ccccc2nc1-c1ccc(N(CC)CC)nc1
– | 6.9 | – | CCOCCc1c(-c2ccc(N(CC)CC)nc2)cnc2ccccc12
– | 5.4 | – | CCOCCc1cccnc1-c1ccc(N(CC)CC)nc1
33 µg/mL (≈ 94.4 µM) | 7 | – | CCOCCc1c(-c2ccc(N(CC)CC)nc2)ncc2ccccc12
169 µg/mL (≈ 466 µM) | 4.2 | – | CCN(CC)c1ccc(-c2nc3cnccn3c2Cc2coc(C)n2)cn1
67 µg/mL (≈ 198 µM) | 6 | – | CCOCCn1c(-c2ccc(N(CC)CC)nc2)nc2ccccc21
– | 7.4 | – | CCOCCc1nc2ccccc2nc1-c1ccc(N(CC)CC)nc1
– | 8 | – | CCOCCc1cc(-c2ccc(N(CC)CC)nc2)nc2ccccc12
– | 3.7 | – | CCN(CC)c1ccc(-c2nc3nccnc3n2Cc2coc(C)n2)cn1
19 µg/mL (≈ 52 µM) | 5 | – | CCOCCc1c(-c2ccc(N(CC)CC)nc2)c(=O)[nH]c2ccccc12
– | 7.4 | – | CCOCCc1cc(Cl)cnc1-c1ccc(N(CC)CC)nc1
≥ 142 µg/mL | 4.9 | – | CCN(CC)c1ccc(-c2nn3cccnc3c2Cc2coc(C)n2)cn1
– | 4.2 | – | CCOCCn1ccnc1-c1ccc(N(CC)CC)nc1
46 µg/mL (≈ 127 µM) | 5.4 | – | CCN(CC)c1ccc(-c2nn3ccccc3c2Cc2coc(C)n2)cn1
≥ 187 µg/mL | 5 | AUC(0-inf) [3]: 94 ng·h/mL; Cmax [4]: 110 ng/mL; half-life [5]: 13.2 min; Vdss [6]: 2.4 L/kg; clearance [7]: 190 mL/min/kg; Papp [8]: 68.5 ×10⁻⁶ cm/s | CCN(CC)c1ccc(-c2nc3cccnn3c2Cc2coc(C)n2)cn1
92 µg/mL (≈ 255 µM) | 5.4 | – | CCN(CC)c1ccc(-n2nc3ccccc3c2Cc2coc(C)n2)cn1
≥ 119 µg/mL | 3 | – | CCN(CC)c1ccc(-c2nc3ncncc3n2Cc2coc(C)n2)cn1
– | 6.9 | – | CCOCCn1c(-c2ccc(N(CC)CC)nc2)nc(Br)c1Br
